Reference: US6258786A, “13-dihydro-3' aziridino anthracyclines” (Pharmacia & Upjohn S.p.A., priority 1998, dated 2001)

How the values were obtained:
Format in all cases: cell-based
L1210 = experiment: In vitro cytotoxicity, growth inhibition by counting surviving cells, L1210; details: Mus musculus, cells incubated with the compound for 1 h, at least two experiments, read-out: IC50 (50% inhibitory concentration), Mean ± SE
Experimental: (§1) 1. The results of in vivo test of Ia on disseminated P388/DX murine leukemia are shown in Tab.2.
(§2) ^1 Cells incubated with the compound for 1 h.
(§3) ^2 50% inhibitory concentration represents the mean ± SE from
(§4) dose-response curves of at least two experiments
(§5) ^3 Growth inhibition determined by counting surviving cells.

JURKAT = experiment: In vitro cytotoxicity, growth inhibition by counting surviving cells, JURKAT; details: Homo sapiens, cells incubated with the compound for 1 h, at least two experiments, read-out: IC50 (50% inhibitory concentration), Mean ± SE
Experimental: as §1, §2, §3, §4, §5

CEM = experiment: In vitro cytotoxicity, growth inhibition by counting surviving cells, CEM; details: Homo sapiens, CCRF-CEM, cells incubated with the compound for 1 h, at least two experiments, read-out: IC50 (50% inhibitory concentration), Mean ± SE
Experimental: as §1, §2, §3, §4, §5

LoVo = experiment: In vitro cytotoxicity, growth inhibition by SRB colorimetric assay, LoVo; details: Homo sapiens, cells incubated with the compound for 1 h, at least two experiments, read-out: IC50 (50% inhibitory concentration), Mean ± SE
Experimental: as §1, §2, §3, §4
^4 Growth inhibition determined by SRB colorimetric assay.

[1] = system: panel of murine and human tumor cell lines; experiment: In vitro cytotoxicity on a panel of murine and human tumor cell lines
Text: The compounds according to the invention are useful in methods of treatment of the human or animal body by therapy. They are useful as anti-tumor agents. They are useful in the treatment of leukemia and solid tumors, such as colon, colon-rectal, ovarian, mammary, prostate, lung, kidney and also melanoma tumors. A human can therefore be treated by a method comprising administering thereto a therapeutically effective amount of a compound of the invention. The condition of the human patient can thus be improved. The dosage to be given can be ascertained using known dosage ranges in the field of anthracyclines, modified by reference to the activity shown by the present compounds in in vitro and in vivo anti-tumor tests. Suitable dosages are generally in the range of 1 to 200 mg/m^2 body surface, preferably from 1 to 100 mg/m^2, depending on the nature and severity of the disease being treated and on the general condition of the patient. The compounds of formula I were tested and found active in vitro against a panel of murine and human tumor cell lines, and in vivo on disseminated P388/DX murine leukemia.
as §1

`CC(O)[C@]1(O)Cc2c(O)c3c(c(O)c2[C@@H](O[C@H]2C[C@H](N4CC4)[C@H](OS(C)(=O)=O)[C@H](C)O2)C1)C(=O)c1ccccc1C3=O` (mixture of isomers) [Ia, 13(R/S)-Dihydro-4-Demethoxy-3'-Deamino-3'-Aziridinyl-4'-Methansulfonyl Daunorubicin] was tested. Which IC50 (L1210) did it give?
The IC50 was 3.76 ± 0.13 ng/mL.

And the IC50 (JURKAT)?
The IC50 was 4.87 ± 0.7 ng/mL.

What about the IC50 (CEM) of the same molecule?
The IC50 was 5.86 ± 0.4 ng/mL.

What about the IC50 (LoVo) of the same molecule?
The IC50 was 0.0203 ± 0.002 µg/mL.

And the “cytotoxicity / in vitro activity in words” value [1]?
Its value is “high cytotoxicity”.
